# Assay results reported in publication PMC4309560, “Creating Novel Activated Factor XI Inhibitors through Fragment Based Lead Generation and Structure Aided Drug Design” (PLoS ONE, 2015).
# Where two headings read alike, the source gives them in different places.
# Legend:
# Human FXIa = biological target: T1, Human FXIa (Homo sapiens, UniProt P03951); assay: FXIa enzymatic chromogenic assay; format: biochemical
# T1 construct: purchased HTI, Essex Junction, USA
# Method: (§1) Enzymatic assay. […] Selected compounds were also screened against other serine proteases to evaluate their selectivity profiles.
# (§2) Once the compounds were synthesized and characterized, enzymatic assays were performed to evaluate the inhibitory activity of the resulting compounds against FXIa and other serine proteases. […] IC50 values for the compounds were determined using equation: Q= V/(1+([I]/IC50)^n) Q denotes the assay readout, V denotes the uninhibited velocity of the enzyme, [I] denotes the inhibitor concentration, n denotes the slope and IC50 is the inhibitor concentration at V/2.
# (§3) [S] denotes the substrate concentration.
# FXIa CD [1] = biological target: T2, FXIa CD (Homo sapiens, UniProt P03951, C500S/K455A/S452A/T493A); assay: Ligand detected 1D NMR fragment screen; format: binding; settings: compounds screened at 100 μM, 5 μM FXIa CD
# T2 construct: purification of the catalytic domain (residues 370–607) was carried out as described by Jin et al; made in house
# Method: Ligand detected 1D NMR. Compounds were screened at 100 μM in mixtures of six. Weakly binding fragments were identified from intensity changes through measurements on three samples viz. […] The signal from a compound binding with low affinity to FXIa CD decreased upon addition of protein and regained upon addition of a high affinity reference compound. Comparison with reference spectra of individual compounds enabled identification of the binding fragment in a mixture. […] As a positive control, the S1 binding ligand para-methyl-benzamidine (pMeBza), compound 3, was used, and in Fig. 3 the doublet at 7.66 ppm is shown.
# NMR samples were prepared in aqueous buffer containing 50 mM deuterated TRIS, pH 7.4, 3 mM NaN3, and 10% D2O. FXIa CD stock solution was buffer exchanged and concentrated to approximately 100 μM (2.7 mg/mL) (UV absorption ε280 = 60390 cm^-1) using 10 kDa cut-off Millipore filter centrifugation tubes. Control experiments with pMeBza and compound 2 were done on all protein preparations (Fig. 3). […]
# NMR data were collected at 20 °C on a Bruker Avance III 600 MHz NMR spectrometer equipped with a cryo probe head. 1D ^1H T 1ρ NMR spectra were recorded with 256 scans, 3.2 s interscan delay, 180 ms spin lock time and 64 kHz spin lock field. […]
# rat models = tested on: rat models; set-up: method as in PMID 17597608; settings: cited from earlier work
# FXIa = tested on: FXIa; set-up: method as in PMID 17597608; settings: irreversible inhibition; cited from earlier work
# FXIa CD [2] = biological target: T2, FXIa CD; assay: FXIa surface plasmon resonance (Biacore) inhibition in solution assay; format: binding
# Description: SPR. […] The SPR data were then used to rank and select compounds for X-ray crystallography experiments. The SPR method was based on an inhibition in solution assay in which compound 4, immobilized on the biosensor surface, served as a probe for the FXIa catalytic site. […] Fig. 4 illustrates the design of compound 4 based on the crystal structure of FXIa in complex with compound 1. Since any ligand that binds to the S1 pocket competes with compound 4 for binding to FXIa CD, it is possible to derive the K D for that ligand [60]. The initial binding rate of the protein to compound 4, K on, was used to determine the percentage of free protein in solution which changed by varying the concentration of the competing ligand. The free protein concentration was plotted against the logarithm of the ligand concentration and a sigmoidal dose–response curve-fit model was applied to determine the K D-value.
# The tethered free amine ligand 4 was covalently linked to the dextran layer on the CM5 sensor chip (GE Healthcare/Biacore) using the Amine Coupling Kit (Healthcare/Biacore) and performed according to the manufacturer’s recommendations. Carboxyl groups on the dextran layer were activated by injecting a 1:1 mixture of 0.5 M N-ethyl-N’ (3-dimethylaminopropyl)-carbodiimide and 0.5 M N-hydroxysuccinimide at 10 μL/min for 7 min. The activated carboxyl groups on the control channels were blocked by injecting a 1 M ethanolamine solution for 7 min at 10 μL/min. […] The remaining activated groups were blocked with 1 M ethanolamine. Compounds were tested in a concentration response curve. The compounds were serially diluted 1:3 in DMSO to form a 10-point concentration response curve with 5 mM for the highest concentration. The FXIa CD was added to the plate at a final concentration of 50 nM and the mixture was incubated for 15 min at RT. The plate was then sealed and placed in the Biacore 3000 instrument. Samples were injected at 20 μL/min for 2 min. […] The value used to calculate percent inhibition of binding was the slope of the response measured 8 s after the start of the injection. […]
# Human PKK = biological target: T3, Human PKK (Homo sapiens, UniProt P03952); assay: PKK (plasma kallikrein) chromogenic assay; format: biochemical; settings: for Ki: converted from IC50
# T3 construct: trypsin, plasma kallikrein (PKK), FIXa; purchased Calbiochem, Darmstadt, Germany
# Method: as §1, §2, §3
# PKK. Human PKK was from Calbiochem, Darmstadt, Germany.
# [3] = Precipitation in FXIa potency measurement; format: physicochemical
# [4] = Chromatographic determination of lipophilicity; format: physicochemical; settings: reversed-phase UPLC, Waters BEH C18 stationary phase, pH 7.4; measured by liquid chromatography, pH7.4
# Description: The chromatographic data was obtained utilizing a Waters Aquity UPLC chromatographic system running a gradient from 5–95% acetonitrile at pH7.4. The stationary phase was a Waters BEH C18 2.1x50 mm. Standardized retention data were obtained by normalization against a set of compounds with precisely determined (octanol/water) logD-values. Lipophilicity values for samples were derived from a corresponding calibration curve.
# Caco2 efflux = format: in vitro ADME; settings: human, Caco-2; Caco2, Papp B to A / Papp A to B, pH 7.4 at side A
# Description: Efflux was studied in the same Caco2 cells with the modification that HBSS buffer pH 7.4 was used on both sides of the monolayer. The permeability was studied in the apical to basolateral direction (Papp AB) as well as in the basolateral to apical direction and (Papp BA). Efflux ratios were derived from the following equation: Papp BA/Papp AB.
# rat hepatocytes = assay: Rat hepatocyte metabolic stability assay; format: in vitro ADME
# Method: Rat hepatocyte metabolic stability was determined in accordance with the method described by Jacobson et al.. Cryo preserved hepatocytes at a concentration of 10^6 viable cells/mL were used. After thawing, hepatocytes were incubated for 10 min to warm to 37°C and test compounds, dissolved in acetonitrile, were added to give a final concentration of 1 μM. At 0.5, 5, 15, 30, 45, 60, 80, 100 and 120 min, the incubation system was mixed and 20 μL aliquots were transferred at each time point to wells in a separate plate filled with 80 μL acetonitrile to stop the reaction. The quenching plate was then vortexed followed by centrifugation, and supernatants were analyzed by LC/MS/MS. Peak areas were determined from extracted ion chromatograms, and the in vitro intrinsic clearance (in vitro CLint, in μL/min/10^6 cells) of parent compound was calculated from the slope in the regression analysis of the natural logarithm of parent concentration vs. time curve.
# Caco2 cells = assay: Caco2 permeability; format: in vitro ADME; settings: measured at pH 6.5
# Method: A monolayer of Caco2 cells, cultured on semi-permeable polycarbonate surfaces, was used to study the permeability in the apical to basolateral direction. The process was atomized by a robotic Tecan EVO platform (Männerdorf, Switzerland) and 24-transwell plates from Costar (Cambridge, MA, USA). HBSS buffer pH 7.4 was dispensed to the basal side of the monolayer. […] Samples for quantitative analysis by LC/MS/MS were withdrawn before the addition of the test substrate and at 45 and 120 min post addition of the test substrate. During incubation the transwell plates were placed in a shaking incubator at 37°C between sampling. The peak areas were exported to Excel where Papp-values and recoveries were calculated. Twenty-two reference compounds with known human oral bioavailability were used to establish a correlation curve with Papp versus the fraction of the oral dose absorbed (fa).
# In vivo rat PK = settings: female, Sprague Dawley, plasma
# Method: Two days prior to dosing, female Sprague Dawley rats were prepared by cannulation of the left carotid artery for blood sampling and by cannulation of the right jugular vein for intravenous administration. The catheters were filled with heparin (100 IU/mL), exteriorized at the nape of the neck and sealed. The surgery was performed under isoflurane (Forene®, Abbott) anesthesia. After surgery the rats were housed individually and had free access to food and water. About 16 h prior to dosing the animals were deprived of food, and fasted until 4 h after dosing. The rats had free access to drinking water during the experiment. On the experiment day, the test item formulation was administered orally by gavage or intravenously in the jugular vein. At pre-defined time points, blood samples of about 0.150 mL were withdrawn from the carotid artery up to 24h after dosing. A total of 10 samples were withdrawn. The blood samples were collected in heparinized plastic tubes and centrifuged, within 30 min, for five min at 10 000 g and +4°C. The plasma was transferred to a 96 well plate and stored at -20°C until analysis by LC/MS/MS. The studies were approved by the Göteborg Animal Research Ethical Board.
# T2 sequence (P03951 388-625 S452A/K455A/T493A/C500S): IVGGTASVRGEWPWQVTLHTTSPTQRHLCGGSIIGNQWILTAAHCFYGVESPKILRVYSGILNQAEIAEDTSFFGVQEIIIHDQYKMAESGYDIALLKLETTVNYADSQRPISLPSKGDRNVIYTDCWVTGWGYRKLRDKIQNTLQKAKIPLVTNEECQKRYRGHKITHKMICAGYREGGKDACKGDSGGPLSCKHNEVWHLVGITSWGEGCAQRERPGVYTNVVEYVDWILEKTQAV
# T1 sequence (P03951 388-625): as the sequence (P03951 388-625 S452A/K455A/T493A/C500S) above, with A65S, A68K, A106T, S113C counted along it
# T1 sequence (P03951 19-387): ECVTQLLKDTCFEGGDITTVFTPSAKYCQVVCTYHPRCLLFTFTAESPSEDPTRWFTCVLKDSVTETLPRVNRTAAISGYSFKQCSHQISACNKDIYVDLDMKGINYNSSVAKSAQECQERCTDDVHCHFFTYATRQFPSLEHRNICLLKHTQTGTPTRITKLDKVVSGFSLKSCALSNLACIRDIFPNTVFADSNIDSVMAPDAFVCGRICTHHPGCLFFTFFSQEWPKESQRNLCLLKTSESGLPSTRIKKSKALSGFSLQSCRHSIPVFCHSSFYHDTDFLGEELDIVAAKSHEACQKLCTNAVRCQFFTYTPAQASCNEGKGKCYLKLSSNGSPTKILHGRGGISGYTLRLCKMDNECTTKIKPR
# T3 sequence (P03952 391-638 limits assumed): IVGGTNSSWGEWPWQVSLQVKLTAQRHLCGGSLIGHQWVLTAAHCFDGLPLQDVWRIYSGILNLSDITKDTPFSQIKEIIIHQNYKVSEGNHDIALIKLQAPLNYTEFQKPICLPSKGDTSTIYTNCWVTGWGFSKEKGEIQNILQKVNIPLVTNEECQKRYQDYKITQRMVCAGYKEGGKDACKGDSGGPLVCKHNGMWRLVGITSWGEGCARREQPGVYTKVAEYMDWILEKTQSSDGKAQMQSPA
# T3 sequence (P03952 20-390 partner limits assumed): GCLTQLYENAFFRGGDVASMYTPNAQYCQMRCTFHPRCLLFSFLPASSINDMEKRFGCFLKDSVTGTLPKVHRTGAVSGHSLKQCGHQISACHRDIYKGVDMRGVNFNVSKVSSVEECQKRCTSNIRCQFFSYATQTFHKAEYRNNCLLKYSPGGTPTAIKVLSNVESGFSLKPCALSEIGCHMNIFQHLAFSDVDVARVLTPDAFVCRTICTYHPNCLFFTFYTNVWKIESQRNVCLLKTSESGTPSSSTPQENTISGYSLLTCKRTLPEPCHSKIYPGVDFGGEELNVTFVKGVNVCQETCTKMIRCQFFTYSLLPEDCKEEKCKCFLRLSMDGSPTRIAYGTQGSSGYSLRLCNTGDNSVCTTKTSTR
compound,measurement,setting,value
"6-methyl-3,4-dihydro-1H-quinolin-2-one [Compound 17]",FXIa % inh. at 1 mM,Human FXIa; 1 mM,20%
same,hit in NMR screen,FXIa CD [1],not identified as a hit in NMR
CC(C)(C)NC(=O)N1CCN(C(=O)N2C(=O)[C@H](CCCN=C(N)N)[C@H]2C(=O)O)CC1 [BMS-262084],in vivo antithrombotic efficacy,rat models,demonstrated in vivo antithrombotic efficacy
same,IC50,FXIa,0.0028 µM
"N=C(N)c1ccc2cc(C(=O)Nc3cccc(OCCOCCN)c3)cc(Nc3ncccn3)c2c1 [Compound 4, N-(3-(2-(2-aminoethoxy)ethoxy)phenyl)-6-carbamimidoyl-4-(pyrimidin-2-ylamino)-2-naphthamide, reference compound]",Kd,FXIa CD [2],0.39 µM
same,IC50,Human FXIa,0.24 µM
same,Ki,Human FXIa,0.12 µM
"Nc1ccc2c(CNC(=O)[C@H](Cc3ccccc3)NC(=O)c3ccc4[nH]c(=O)cc(O)c4c3)cccc2n1 [Compound 8, (S)-N-(1-{(2-Aminoquinolin-5-yl)methylamino}-1-oxo-3-phenylpropan-2-yl)-4-hydroxy-2-oxo-1,2-dihydroquinoline-6-carboxamide]",IC50,Human FXIa,0.12 µM
same,Ki,Human FXIa,0.06 µM
same,pKa,Experimental pKa,7.1
same,IC50,Human PKK,7.2 µM
same,selectivity vs. PKK,"Human PKK; FXIa over PKK, for 13 based on Ki values",about 25 fold
same,Ki,Human PKK,1.5 µM
Cc1cc(=O)[nH]c2ccc(Cl)cc12 [Compound 12],inhibition at 111 µM,Human FXIa; read-out: FXIa % inh. at 111 μM,43%
same,Precipitates at higher concentration than,[3],> 111 µM
"CNC(=O)[C@H](Cc1ccccc1)NC(=O)c1ccc2[nH]c(=O)cc(O)c2c1 [Compound 15, (S)-4-Hydroxy-N-(1-(methylamino)-1-oxo-3-phenylpropan-2-yl)-2-oxo-1,2-dihydroquinoline-6-carboxamide]",Kd,FXIa CD [2]; read-out: FXIa KD,1400 µM
same,ligand efficiency (LE),Human FXIa; FXIa,0.15
same,-ΔG fragment (printed with reversed sign in the ΔG link equation),"Human FXIa; FXIa, subtracted term, so ΔG itself is negative",3.9 kcal/mol
"CN(Cc1cc(=O)[nH]c2ccc(Cl)cc12)C(=O)[C@H](Cc1ccccc1)N(C)C(=O)c1ccc2[nH]c(=O)cc(O)c2c1 [Compound 26, (S)-N-(1-[{(6-Chloro-2-oxo-1,2-dihydroquinolin-4-yl)methyl}(methyl)amino]-1-oxo-3-phenylpropan-2-yl)-4-hydroxy-N-methyl-2-oxo-1,2-dihydroquinoline-6-carboxamide]",IC50,Human FXIa,1.7 µM
same,Ki,Human FXIa,0.85 µM
same,chromatographic logD,[4],1.4
same,efflux ratio,Caco2 efflux,> 3.8
same,Rat CLint,rat hepatocytes,23 μL/min/ 1·10^6 cells
same,Caco2 A to B permeability,Caco2 cells,0.16 1·10^-6 cm/s
"Cc1c(-c2ccccc2)n[nH]c1C(=O)N(C)Cc1cc(=O)[nH]c2ccc(Cl)cc12 [Compound 28, N-{(6-Chloro-2-oxo-1,2-dihydroquinolin-4-yl)methyl}-N,4-dimethyl-3-phenyl-1H-pyrazole-5-carboxamide]",clearance,"In vivo rat PK; intravenous, rat in vivo, read-out: Rat CL (in vivo clearance)",18 mL/min/kg
same,bioavailability,"In vivo rat PK; rat, oral",27%
same,IC50,Human FXIa,0.82 µM
same,Ki,Human FXIa,0.41 µM
same,chromatographic logD,[4],2.7
same,efflux ratio,Caco2 efflux,1.6
same,Rat CLint,rat hepatocytes,21 μL/min/ 1·10^6 cells
same,IC50,Human PKK,8.4 µM
same,Ki,Human PKK,1.7 µM
same,Caco2 A to B permeability,Caco2 cells,19 1·10^-6 cm/s
